Residues, ends and D or L forms follow the SMILES beside them. Some results are limits rather than exact numbers.

By Kd is commonly meant the concentration at which binding is half-saturated.

For one experiment, the target named is T1, Scrib PDZ-1 domain (Homo sapiens, UniProt Q14160).
T1 construct: ROC curves of DomPep prediction for the three Scrib PDZ-1/2/3 domains
Briefly: In-solution fluorescence polarization binding of peptides to Scrib PDZ1. The settings on record: Kd value of 100 µM applied as binding cutoff, NB without definition, read-out: Kd (µM) PDZ1. (Fluorescence polarisation rises when a labelled molecule tumbles more slowly, as on binding a larger partner.)

In another experiment the target is T2, Scrib PDZ-2 domain (Homo sapiens, UniProt Q14160).
T2 construct: ROC curves of DomPep prediction for the three Scrib PDZ-1/2/3 domains
T2 sequence (Q14160 862-950 limits assumed): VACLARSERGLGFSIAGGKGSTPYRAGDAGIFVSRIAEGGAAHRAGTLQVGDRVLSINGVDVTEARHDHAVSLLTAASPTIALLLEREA
Briefly: In-solution fluorescence polarization binding of peptides to Scrib PDZ2. The settings on record: Kd value of 100 µM applied as binding cutoff, NB without definition, read-out: Kd (µM) PDZ2.

The target of a further experiment is T3, Scrib PDZ-3 domain (Homo sapiens, UniProt Q14160).
T3 construct: ROC curves of DomPep prediction for the three Scrib PDZ-1/2/3 domains
T3 sequence (Q14160 1004-1093 limits assumed): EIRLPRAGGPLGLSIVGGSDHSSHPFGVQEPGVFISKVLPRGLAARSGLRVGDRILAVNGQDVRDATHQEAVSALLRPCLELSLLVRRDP
As to the kind of experiment: In-solution fluorescence polarization binding of peptides to Scrib PDZ3. The settings on record: Kd value of 100 µM applied as binding cutoff, NB without definition. The source says: Because DomPep compared favorably to MDSM in identifying ligands for a PDZ domain included in the training set and to SPSSM in identifying binding peptides for an untrained PDZ domain, we next tested it whether it could reliably PPIs mediated by a PDZ domain on the genome scale. To this end, we employed three DomPep models to predict interactions between the Scrib PDZ domains and human proteins from the Swiss-Prot protein database. The three prediction models, which were generated for the mouse Scrib PDZ-1, PDZ-2 and PDZ-3 domains, were trained with 6, 5 and 30 positive peptide, respectively (Table S1). Searching the protein database with these models yielded a list of potential PDZ ligands. […] This experiment identified 14, 14, and 38 positives for the PDZ-1, -2, and -3 domains, respectively (Table 1). […] Importantly, we identified four peptides that were not included in the training set as physiological binders to the Scrib PDZ domains. The corresponding proteins, namely APC, LPP, VANGL2 and ZO2, were previously reported to interact with Scrib in vivo via its PDZ domains, [36], [37], [38], [39].
Figure 4 Application of DomPep to the prediction of PDZ-binding ligands. ROC curves of DomPep prediction for the three Scrib PDZ-1/2/3 domains using 56 peptides selected from the human protein database as the test set. The respective affinities of the three domains for the 56 peptides were measured by fluorescence polarization (Table 1).

T1 sequence (Q14160 728-815 limits assumed): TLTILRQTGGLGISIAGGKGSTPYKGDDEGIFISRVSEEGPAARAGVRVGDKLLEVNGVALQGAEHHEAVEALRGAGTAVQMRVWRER

Consider `CC[C@H](C)[C@H](NC(=O)[C@@H]1CCCN1C(=O)[C@@H]1CCCN1C(=O)[C@@H](NC(=O)[C@H](CO)NC(=O)[C@H](Cc1ccc(O)cc1)NC(=O)[C@H](CC(C)C)NC(=O)[C@@H](NC(=O)[C@@H](NC(=O)[C@@H](N)CO)C(C)C)C(C)C)[C@@H](C)O)C(=O)O` [FLT1] (H-SVVLYSTPPI-OH; N-terminus and C-terminus assumed), for which the Kd on Scrib PDZ-1 domain, at Scrib PDZ-2 domain and on Scrib PDZ-3 domain was above 100 µM each time.

In the case of `CC(C)C[C@H](NC(=O)[C@H](C)NC(=O)[C@@H](NC(=O)[C@H](CO)NC(=O)[C@@H](N)CO)[C@@H](C)O)C(=O)N[C@@H](Cc1c[nH]cn1)C(=O)N[C@@H](CCC(N)=O)C(=O)N[C@@H](Cc1c[nH]cn1)C(=O)N[C@@H](Cc1c[nH]cn1)C(=O)N[C@@H](Cc1ccccc1)C(=O)O` [LIMD1] (H-SSTALHQHHF-OH; N-terminus and C-terminus assumed), the equilibrium dissociation constant (Kd) at Scrib PDZ-1 domain, on Scrib PDZ-2 domain and at Scrib PDZ-3 domain was above 100 µM each time.

For `CC(C)[C@H](NC(=O)[C@H](CCCNC(=N)N)NC(=O)[C@@H](N)CC(=O)O)C(=O)N[C@@H](C)C(=O)N[C@@H](CCC(=O)O)C(=O)N[C@@H](CCC(N)=O)C(=O)N[C@@H](CC(=O)O)C(=O)N[C@H](C(=O)N[C@@H](CCC(N)=O)C(=O)N[C@@H](C)C(=O)O)[C@@H](C)O` [MPG] (H-DRVAEQDTQA-OH), the dissociation constant (Kd) is above 100 µM at Scrib PDZ-1 domain, above 100 µM at Scrib PDZ-2 domain and 186 µM on Scrib PDZ-3 domain.

Take `CC(C)C[C@H](NC(=O)[C@@H](NC(=O)[C@H](CCCCN)NC(=O)[C@H](CC(C)C)NC(=O)[C@H](Cc1ccccc1)NC(=O)[C@H](CCCCN)NC(=O)[C@H](CCC(=O)O)NC(=O)[C@H](Cc1ccccc1)NC(=O)[C@H](CC(=O)O)NC(=O)[C@@H](N)CCC(N)=O)[C@@H](C)O)C(=O)O` [MTERFD1] (H-QDFEKFLKTL-OH; N-terminus and C-terminus assumed): the Kd at Scrib PDZ-1 domain, on Scrib PDZ-2 domain and at Scrib PDZ-3 domain was above 100 µM in each case.

On to `CC(C)[C@H](NC(=O)[C@H](CO)NC(=O)[C@@H](NC(=O)[C@@H](NC(=O)CNC(=O)[C@H](CCC(=O)O)NC(=O)[C@H](C)NC(=O)[C@H](CCCNC(=N)N)NC(=O)[C@H](CCC(=O)O)NC(=O)[C@@H](N)CS)[C@@H](C)O)C(C)C)C(=O)O` [MUSK] (H-CERAEGTVSV-OH), for which the values for the Kd at Scrib PDZ-1 domain, on Scrib PDZ-2 domain and on Scrib PDZ-3 domain were above 100 µM, above 100 µM and 143 µM, respectively.

For `CC[C@H](C)[C@H](NC(=O)[C@@H](NC(=O)[C@H](Cc1ccccc1)NC(=O)[C@H](CCC(=O)O)NC(=O)[C@@H]1CCCN1C(=O)[C@H](CC(N)=O)NC(=O)[C@@H](NC(=O)[C@@H](N)Cc1ccc(O)cc1)[C@@H](C)O)C(C)C)C(=O)N[C@@H](CC(N)=O)C(=O)N[C@H](C(=O)O)C(C)C` [PRKCB1] (H-YTNPEFVINV-OH; N-terminus and C-terminus assumed), the Kd at Scrib PDZ-1 domain, at Scrib PDZ-2 domain and on Scrib PDZ-3 domain was above 100 µM throughout.

Regarding `CC(C)[C@H](NC(=O)[C@H](CO)NC(=O)[C@H](CCCCN)NC(=O)[C@H](CCCCN)NC(=O)[C@H](CO)NC(=O)[C@H](CCCCN)NC(=O)[C@H](CCCCN)NC(=O)[C@H](CCCCN)NC(=O)[C@H](CCC(=O)O)NC(=O)[C@H](C)N)C(=O)O` [PSMA8] (H-AEKKKSKKSV-OH), the Kd at Scrib PDZ-1 domain is above 100 µM; at Scrib PDZ-2 domain, above 100 µM; at Scrib PDZ-3 domain, 177 µM.

As for `CC(C)C[C@H](NC(=O)[C@H](CCCCN)NC(=O)[C@H](CO)NC(=O)[C@H](CCC(=O)O)NC(=O)[C@H](CO)NC(=O)[C@@H](NC(=O)[C@H](CCC(N)=O)NC(=O)[C@@H]1CCCN1C(=O)[C@H](CCCCN)NC(=O)[C@@H](N)C(C)C)C(C)C)C(=O)O` [PTE1] (H-VKPQVSESKL-OH; N-terminus and C-terminus assumed), the Kd at Scrib PDZ-1 domain, at Scrib PDZ-2 domain and at Scrib PDZ-3 domain was above 100 µM throughout.

In the case of `CC(C)C[C@H](NC(=O)[C@H](CS)NC(=O)[C@H](CC(=O)O)NC(=O)[C@@H](NC(=O)[C@H](CC(N)=O)NC(=O)[C@H](CCCNC(=N)N)NC(=O)[C@H](CC(C)C)NC(=O)CNC(=O)CNC(=O)[C@@H](N)CC(=O)O)C(C)C)C(=O)O` [TBK1] (H-DGGLRNVDCL-OH), the Kd at Scrib PDZ-1 domain is 77 µM; at Scrib PDZ-2 domain it was above 100 µM; on Scrib PDZ-3 domain, 67.8 µM.

With `CC[C@H](C)[C@H](NC(=O)[C@@H](N)CC(N)=O)C(=O)NCC(=O)N[C@@H](CO)C(=O)N[C@@H](CCC(N)=O)C(=O)NCC(=O)N[C@@H](CO)C(=O)N[C@H](C(=O)N[C@@H](CC(=O)O)C(=O)N[C@@H](Cc1ccc(O)cc1)C(=O)O)[C@@H](C)O` [TRIM21] (H-NIGSQGSTDY-OH), the Kd at Scrib PDZ-1 domain was above 100 µM; on Scrib PDZ-2 domain it was above 100 µM; at Scrib PDZ-3 domain, 116 µM.

For the compound `CC[C@H](C)[C@H](NC(=O)[C@H](C)NC(=O)[C@H](CO)NC(=O)[C@H](CC(C)C)NC(=O)[C@H](CC(C)C)NC(=O)[C@@H](N)CCC(=O)O)C(=O)N[C@@H](CCC(=O)O)C(=O)N[C@@H](CCCCN)C(=O)N[C@@H](CC(C)C)C(=O)N[C@@H](CC(C)C)C(=O)O` [UBXD1] (H-ELLSAIEKLL-OH; N-terminus and C-terminus assumed), the Kd at Scrib PDZ-1 domain, on Scrib PDZ-2 domain and on Scrib PDZ-3 domain was above 100 µM each time.

Consider `CC(C)C[C@H](NC(=O)[C@H](CCCCN)NC(=O)[C@H](CO)NC(=O)[C@H](CC(N)=O)NC(=O)[C@@H](NC(=O)[C@H](CO)NC(=O)[C@H](Cc1c[nH]cn1)NC(=O)[C@@H]1CCCN1C(=O)[C@H](CC(C)C)NC(=O)[C@@H](N)CCC(=O)O)C(C)C)C(=O)O` [ZADH2] (H-ELPHSVNSKL-OH; N-terminus and C-terminus assumed), for which the Kd on Scrib PDZ-1 domain, on Scrib PDZ-2 domain and on Scrib PDZ-3 domain was above 100 µM each time.

Values taken from publication PMC3189207, “DomPep—A General Method for Predicting Modular Domain-Mediated Protein-Protein Interactions” (PLoS ONE, 2011).
